Experimental data: patent US20210253562A1, “ACYLSUFONAMIDE COMPOUNDS USEFUL AS EP3 RECEPTOR ANTAGONISTS” (Janssen Pharmaceutica NV, priority 2018, published 2021)
Where two headings read alike, the source gives them in different places.

Tests used:
[1] = target: T1, EP3 membrane (EP3 receptor) (Homo sapiens, UniProt P43115); experiment: [3H]-PGE2 binding; EP3 competition binding (SPA)
T1 construct: purchased Millipore HTS092M
T1 sequence (P43115 1-390): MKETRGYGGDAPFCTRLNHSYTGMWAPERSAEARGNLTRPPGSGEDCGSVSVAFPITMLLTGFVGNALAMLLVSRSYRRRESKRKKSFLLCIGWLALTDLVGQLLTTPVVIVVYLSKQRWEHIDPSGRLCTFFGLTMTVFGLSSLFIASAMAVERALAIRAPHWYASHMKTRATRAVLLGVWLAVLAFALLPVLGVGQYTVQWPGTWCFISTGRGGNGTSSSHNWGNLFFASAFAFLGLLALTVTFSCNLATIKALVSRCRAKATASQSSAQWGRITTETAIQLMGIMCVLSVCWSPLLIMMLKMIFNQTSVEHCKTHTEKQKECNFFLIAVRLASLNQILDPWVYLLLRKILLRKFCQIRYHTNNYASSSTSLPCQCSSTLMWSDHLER
Method: Biological Example 1: [3H]-PGE2 Binding
EP3 competition binding was determined using the following materials and experimental conditions: • Beads=Perkin Elmer RPNQ0001 • [3H]PGE2=Perkin Elmer NET428025UC • 384-well plate=Perkin Elmer 6007290 • EP3 membrane=Millipore HTS092M • Membrane concentration=2 μg/well • Beads concentration=0.25 mg/well • [3H]-PGE2=2 nM; DMSO—0.1% • Binding buffer=50 mM Tris, 10 mM MgCl2, 1 mM EDTA, PH 7.4.
The reaction system was prepared by mixing 5 μl of unlabeled compound; 5 μl of diluted [3H]-PGE2; 5 μl of diluted membrane; and 15 μl of SPA beads dissolved in binding buffer (adding in the following sequence: Unlabeled compound, [3H]-PGE2, Membrane and Beads).
The binding buffer was removed from refrigeration (@ 4° C.) and allowed to warm to room temperature. Test compound (@ stock concentration of […] in DMSO) was serial dilutes (1:3) with 100% DMSO using Echo plate. Diluted test compound (30 nL) was dispensed to the 384-well assay plate (using Echo 550 Labcyte System). To each well was then added assay buffer (5 μl) and each well was spun. Beads were weighed out, dissolved in assay buffer to a concentration of 0.25 mg/15 μl. Original membrane was diluted with assay buffer to a concentration of 2 μg/5 μl. Original [3H]-PGE2 with diluted with assay buffer to a concentration of 12 nM. To each test well were then added diluted [3H]-PGE2 (5 μl), diluted membrane (5 μl), and dissolved beads (15 μl). The plate was equilibrated at room temperature on a plate shaker for 2 hours and then read with a TOPCOUNT scintillation plate reader. Results were analyzed using a Prism program with non-linear regression, one-site fit for Ki.

[2] = target: T2, CHO cells over-expressing the EP3 receptor (Homo sapiens, UniProt P43115); experiment: CHO cell cAMP assay; EP3 cAMP antagonist dose response (sulprostone reference), HTRF; assay type: cell-based; conditions: sulprostone 700 nM (EC80) and FSK 2 μM (EC70); read-out: CHO_cAMP IC50
T2 construct: expressed in transfected cells; host or cells: CHO cells
T2 sequence (P43115 1-390): T1 sequence (P43115 1-390)
Method: Biological Example 2: CHO Cell cAMP Assay
This assay monitored the cAMP generation in CHO cells over-expressing the EP3 receptor in the presence or absence of antagonist stimulated with Forskolin (FSK, CAS No. 66428-89-5) and a known EP3 Agonist (sulprostone, CAS No. 60325-46-4). For detection, a homogeneous competitive immunoassay (Time Resolved Fluorescence Energy Transfer (hTR-FRET)) was used.
Cells (6K cells per well) were plated in Poly-D-Lysine coated plates the day before the assay was to be run and were incubated at 37° C. One hour before the assay the media was removed and replaced with assay buffer (500 mL HBSS (+Ca)+2.5 mL 1M HEPES+6.66 mL 7.5% BSA) (starved at 37° C.). At the start of the assay the buffer was removed from the cells and replaced with buffer containing test compound(s). Sulprostone at an EC80 dose (700 nM) and FSK at an EC70 dose (2 μM) were added to initiate the reaction (37° C. for 30 minutes).
FSK increases cAMP production and sulprostone decreases cAMP production produced by FSK. In this assay, EP3 antagonists will increase the cAMP to the level of cAMP generated by FSK alone.
The reaction was terminated with the addition of cAMP detection reagents (labeled cAMP and labeled cAMP antibody in lysis buffer (HTRF reagent, which utilizes a cryptate-labeled anti-cAMP and d2-labeled cAMP-d2 is an HTRF acceptor fluorophore)). Approximately one hour later the plates were read on an Envision (Perkin Elmer) in HTRF mode. Well results were calculated based on a ratio of counts at 665 nm and 615 nm (data output was a calculation of the ratio: (read @665 nm/read @ 615 nm)*1000. For test compounds dosed serially, well results were converted to nM cAMP using a cAMP standard run on each plate. nM cAMP from a set of wells dosed with test compound(s) were plotted. nM cAMP was calculated for each well from a standard curve located on each plate (P1-12 and P13-24) by first calculating the slope and deriving the intercept(b):
[formula] NScAMP_s tan dard_cruve=m(nM cAMP_s tan dard_curve)+b
NSP, NSN, NSsample were converted to nM cAMP using the following equation: […]
IC50 values were determined from a […] (Hill equation) of a single 11-point compound dosing. A best-fit curve was determined by the minimum sum of squares method plotting cAMP produced vs compound concentration.

Ki [1] [nM] | IC50 [2] [nM] | Ki ([1]; unit nM) [nM] | SMILES
11 | 92 |  | O=C(NS(=O)(=O)c1ccc(Cl)cc1)OC/C=C1\CCCc2cnn(Cc3ccc(Cl)cc3Cl)c21 [Compound #2, (E)-2-(1-(2,4-dichlorobenzyl)-1,4,5,6-tetrahydro-7H-indazol-7-ylidene)ethyl ((4-chlorophenyl)sulfonyl)carbamate]
3 | 33 |  | O=C(C/C=C1\CCCc2cnn(Cc3ccc(Cl)cc3Cl)c21)NS(=O)(=O)c1cc(Cl)c(Cl)s1 [Compound #3, (E)-3-(1-(2,4-dichlorobenzyl)-1,4,5,6-tetrahydro-7H-indazol-7-ylidene)-N-((4,5-dichlorothiophen-2-yl)sulfonyl)propanamide]
1 | 5 |  | O=C(NS(=O)(=O)c1cc(Cl)c(Cl)s1)OC/C=C1\CCCc2cnn(Cc3ccc(Cl)cc3Cl)c21 [Compound #5, (E)-2-(1-(2,4-dichlorobenzyl)-1,4,5,6-tetrahydro-7H-indazol-7-ylidene)ethyl ((4,5-dichlorothiophen-2-yl)sulfonyl)carbamate]
84 | 110 |  | O=C(/C=C/C=C1\CCCc2cnn(Cc3ccc(Cl)cc3Cl)c21)NS(=O)(=O)c1cc(Cl)c(Cl)s1 [Compound #6, (E)-4-((E)-1-(2,4-dichlorobenzyl)-1,4,5,6-tetrahydro-7H-indazol-7-ylidene)-N-((4,5-dichlorothiophen-2-yl)sulfonyl)but-2-enamide]
 | 11 | 0.5 | O=C(NC/C=C1\CCCc2cnn(Cc3ccc(Cl)cc3Cl)c21)NS(=O)(=O)c1cc(Cl)c(Cl)s1 [Compound #7, (E)-4,5-dichloro-N-((2-(1-(2,4-dichlorobenzyl)-1,4,5,6-tetrahydro-7H-indazol-7-ylidene)ethyl)carbamoyl)thiophene-2-sulfonamide]
 | 2 | 0.1 | O=C(CC/C=C1\CCCc2cnn(Cc3ccc(Cl)cc3Cl)c21)NS(=O)(=O)c1cc(Cl)c(Cl)s1 [Compound #8, (E)-4-(1-(2,4-dichlorobenzyl)-1,4,5,6-tetrahydro-7H-indazol-7-ylidene)-N-((4,5-dichlorothiophen-2-yl)sulfonyl)butanamide]
6 | 14 |  | O=C(NC/C=C1\CCCc2cnn(Cc3ccc(Cl)cc3Cl)c21)NS(=O)(=O)c1cc(F)cc(F)c1 [Compound #9, (E)-N-((2-(1-(2,4-dichlorobenzyl)-1,4,5,6-tetrahydro-7H-indazol-7-ylidene)ethyl)carbamoyl)-3,5-difluorobenzenesulfonamide]
15 | 28 |  | O=C(NC/C=C1\CCCc2cnn(Cc3ccc(Cl)cc3Cl)c21)NS(=O)(=O)c1cccs1 [Compound #10, (E)-N-((2-(1-(2,4-dichlorobenzyl)-1,4,5,6-tetrahydro-7H-indazol-7-ylidene)ethyl)carbamoyl)thiophene-2-sulfonamide]
1 | 2 |  | O=C(NC/C=C1\CCCc2cnn(Cc3ccc(Cl)cc3Cl)c21)NS(=O)(=O)c1ccc(Cl)s1 [Compound #11, (E)-5-chloro-N-((2-(1-(2,4-dichlorobenzyl)-1,4,5,6-tetrahydro-7H-indazol-7-ylidene)ethyl)carbamoyl)thiophene-2-sulfonamide]
19 | 48 |  | O=C(NC/C=C1\CCCc2cnn(Cc3ccc(Cl)cc3Cl)c21)NS(=O)(=O)c1cnc2ccccc2c1 [Compound #12, (E)-N-((2-(1-(2,4-dichlorobenzyl)-1,4,5,6-tetrahydro-7H-indazol-7-ylidene)ethyl)carbamoyl)quinoline-3-sulfonamide]
10 | 29 |  | COc1ccc(S(=O)(=O)NC(=O)NC/C=C2\CCCc3cnn(Cc4ccc(Cl)cc4Cl)c32)cc1 [Compound #13, (E)-N-((2-(1-(2,4-dichlorobenzyl)-1,4,5,6-tetrahydro-7H-indazol-7-ylidene)ethyl)carbamoyl)-4-methoxybenzenesulfonamide]
2000 | 3700 |  | CC(C)S(=O)(=O)NC(=O)C/C=C1\CCCc2cnn(Cc3ccc(Cl)cc3Cl)c21 [Compound #14, (E)-3-(1-(2,4-dichlorobenzyl)-1,4,5,6-tetrahydro-7H-indazol-7-ylidene)-N-(isopropylsulfonyl)propenamide]
1 | 5 |  | O=C(NC/C=C1\CCCc2cnn(Cc3ccc(Cl)cc3Cl)c21)NS(=O)(=O)c1nc2ccccc2s1 [Compound #15, (E)-N-((2-(1-(2,4-dichlorobenzyl)-1,4,5,6-tetrahydro-7H-indazol-7-ylidene)ethyl)carbamoyl)benzo[d]thiazole-2-sulfonamide]
9 | 27 |  | O=C(NC/C=C1\CCCc2cnn(Cc3ccc(Cl)cc3Cl)c21)NS(=O)(=O)c1ccc2c(c1)OCCO2 [Compound #16, (E)-N-((2-(1-(2,4-dichlorobenzyl)-1,4,5,6-tetrahydro-7H-indazol-7-ylidene)ethyl)carbamoyl)-2,3-dihydrobenzo[b][1,4]dioxine-6-sulfonamide]
19 | 74 |  | O=C(C/C=C1\CCCc2cnn(Cc3ccc(Cl)cc3Cl)c21)NS(=O)(=O)c1ccc(Cl)s1 [Compound #17]
147 | 662 |  | O=C(C/C=C1\CCCc2cnn(Cc3ccc(Cl)cc3Cl)c21)NS(=O)(=O)c1ccc2c(c1)OCCO2 [Compound #18, (E)-3-(1-(2,4-dichlorobenzyl)-1,4,5,6-tetrahydro-7H-indazol-7-ylidene)-N-((2,3-dihydrobenzo[b][1,4]dioxin-6-yl)sulfonyl)propenamide]
14 | 83 |  | O=C(C/C=C1\CCCc2cnn(Cc3ccc(Cl)cc3Cl)c21)NS(=O)(=O)c1cc(F)cc(F)c1 [Compound #19, (E)-3-(1-(2,4-dichlorobenzyl)-1,4,5,6-tetrahydro-7H-indazol-7-ylidene)-N-((3,5-difluorophenyl)sulfonyl)propenamide]
1 |  |  | Cc1cc(S(=O)(=O)NC(=O)NC/C=C2\CCCc3cnn(-c4ccc(Cl)cc4Cl)c32)sc1Cl [Compound #196, (E)-5-chloro-N-((2-(1-(2,4-dichlorophenyl)-1,4,5,6-tetrahydro-7H-indazol-7-ylidene)ethyl)carbamoyl)-4-methylthiophene-2-sulfonamide]
8 |  |  | Cc1ncc(S(=O)(=O)NC(=O)NC/C(F)=C2\CCCc3cnn(Cc4ccc(Cl)cc4Cl)c32)cc1Cl [Compound #197, (Z)-5-chloro-N-((2-(1-(2,4-dichlorobenzyl)-1,4,5,6-tetrahydro-7H-indazol-7-ylidene)-2-fluoroethyl)carbamoyl)-6-methylpyridine-3-sulfonamide]
